ChEMBL document CHEMBL3885861, “Open TG-GATES”

Organism: Rattus norvegicus
Test: Open TG-GATES - Regimen: Daily Repeat
Format: toxicity, organism-based, Sprague-Dawley
Parameters: regimen Daily Repeat, gender Male, age 6 weeks
Conditions: in vivo, po, 1000 mg/kg, route gavage, dose level High; for APTT / Bas / Eos / Fbg / Hb / Ht / Lym / MCH / MCHC / MCV / Mono / Neu / PT / Plat / RBC / Ret / WBC: tissue Blood; for KIDNEY_L / KIDNEY_R / KIDNEY_TOTAL: tissue Kidney; for LIVER: tissue Liver; for A/G / ALP / ALT / AST / BUN / CRE / Ca / Cl / DBIL / GLC / IP / K / LDH / Na / PL / RALB / TBIL / TC / TG / TP / gamma-GTP: tissue Plasma

Compound: O=C(N[C@H](CO)[C@H](O)c1ccc([N+](=O)[O-])cc1)C(Cl)Cl [CHLORAMPHENICOL]
- TERMINAL_BW (72 h, time 3 day): 243.9 g
- APTT (72 h, time 3 day): 17 s
- Bas (72 h, time 3 day): 0%
- Eos (72 h, time 3 day): 1.4%
- Fbg (72 h, time 3 day): 313.4 mg/dL
- Hb (72 h, time 3 day): 13.3 g/dL
- Ht (72 h, time 3 day): 40.7%
- Lym (72 h, time 3 day): 87.8%
- MCH (72 h, time 3 day): 21.1 pg
- MCHC (72 h, time 3 day): 32.7%
- MCV (72 h, time 3 day): 64.6 fL
- Mono (72 h, time 3 day): 3.2%
- Neu (72 h, time 3 day): 7%
- PT (72 h, time 3 day): 14.6 s
- Plat (72 h, time 3 day): 109.7 x10_4/uL
- RBC (72 h, time 3 day): 630.6 x10_4/ul
- Ret (72 h, time 3 day): 2.3%
- WBC (72 h, time 3 day): 63.9 x10_2/uL
- KIDNEY_L (72 h, time 3 day): 1.1 g
- KIDNEY_R (72 h, time 3 day): 1.1 g
- KIDNEY_TOTAL (72 h, time 3 day): 2.2 g
- LIVER (72 h, time 3 day): 13.2 g
- A/G (72 h, time 3 day): 0.9
- ALP (72 h, time 3 day): 1258.6 IU/L
- ALT (72 h, time 3 day): 41 IU/L
- AST (72 h, time 3 day): 75 IU/L
- BUN (72 h, time 3 day): 16.6 mg/dL
- CRE (72 h, time 3 day): 0.2 mg/dL
- Ca (72 h, time 3 day): 10.5 mg/dL
- Cl (72 h, time 3 day): 106.8 meq/L
- DBIL (72 h, time 3 day): 0.012 mg/dL
- GLC (72 h, time 3 day): 168.4 mg/dL
- IP (72 h, time 3 day): 6.2 mg/dL
- K (72 h, time 3 day): 4.3 meq/L
- LDH (72 h, time 3 day): 85.6 IU/L
- Na (72 h, time 3 day): 141.6 meq/L
- PL (72 h, time 3 day): 138.6 mg/dL
- RALB (72 h, time 3 day): 2.4 g/dL
- TBIL (72 h, time 3 day): 0.05 mg/dL
- TC (72 h, time 3 day): 72.6 mg/dL
- TG (72 h, time 3 day): 82.6 mg/dL
- TP (72 h, time 3 day): 5.2 g/dL
- gamma-GTP (72 h, time 3 day): 1 IU/L
- TERMINAL_BW ([…], time 7 day): 275.6 g
- TERMINAL_BW ([…], time 14 day): 327.3 g
- TERMINAL_BW ([…], time 28 day): 381.6 g
- APTT ([…], time 7 day): 16.3 s
- Bas ([…], time 7 day): 0%
- Eos ([…], time 7 day): 1%
- Fbg ([…], time 7 day): 339.2 mg/dL
- Hb ([…], time 7 day): 13 g/dL
- Ht ([…], time 7 day): 40%
- Lym ([…], time 7 day): 84.4%
- MCH ([…], time 7 day): 20.6 pg
- MCHC ([…], time 7 day): 32.5%
- MCV ([…], time 7 day): 63.3 fL
- Mono ([…], time 7 day): 2.4%
- Neu ([…], time 7 day): 11.4%
- PT ([…], time 7 day): 14.8 s
- Plat ([…], time 7 day): 126.1 x10_4/uL
- RBC ([…], time 7 day): 631.6 x10_4/ul
- Ret ([…], time 7 day): 4.9%
- WBC ([…], time 7 day): 79.2 x10_2/uL
- APTT ([…], time 14 day): 15.6 s
- Bas ([…], time 14 day): 0%
- Eos ([…], time 14 day): 1%
- Fbg ([…], time 14 day): 325.6 mg/dL
- Hb ([…], time 14 day): 13.9 g/dL
- Ht ([…], time 14 day): 42.9%
- Lym ([…], time 14 day): 87.2%
- MCH ([…], time 14 day): 20.6 pg
- MCHC ([…], time 14 day): 32.3%
- MCV ([…], time 14 day): 63.6 fL
- Mono ([…], time 14 day): 2.8%
- Neu ([…], time 14 day): 8.4%
- PT ([…], time 14 day): 14.9 s
- Plat ([…], time 14 day): 116.9 x10_4/uL
- RBC ([…], time 14 day): 675.6 x10_4/ul
- Ret ([…], time 14 day): 4.4%
- WBC ([…], time 14 day): 86.3 x10_2/uL
- APTT ([…], time 28 day): 16.3 s
- Bas ([…], time 28 day): 0%
- Eos ([…], time 28 day): 1.2%
- Fbg ([…], time 28 day): 303 mg/dL
- Hb ([…], time 28 day): 14.6 g/dL
- Ht ([…], time 28 day): 42.8%
- Lym ([…], time 28 day): 87.4%
- MCH ([…], time 28 day): 19.6 pg
- MCHC ([…], time 28 day): 34.1%
- MCV ([…], time 28 day): 57.3 fL
- Mono ([…], time 28 day): 1.6%
- Neu ([…], time 28 day): 9.2%
- PT ([…], time 28 day): 15.5 s
- Plat ([…], time 28 day): 106.7 x10_4/uL
- RBC ([…], time 28 day): 746.4 x10_4/ul
- Ret ([…], time 28 day): 1.7%
- WBC ([…], time 28 day): 78.6 x10_2/uL
- KIDNEY_L ([…], time 7 day): 1.2 g
- KIDNEY_R ([…], time 7 day): 1.2 g
- KIDNEY_TOTAL ([…], time 7 day): 2.4 g
- KIDNEY_L ([…], time 14 day): 1.4 g
- KIDNEY_R ([…], time 14 day): 1.3 g
- KIDNEY_TOTAL ([…], time 14 day): 2.7 g
- KIDNEY_L ([…], time 28 day): 1.6 g
- KIDNEY_R ([…], time 28 day): 1.6 g
- KIDNEY_TOTAL ([…], time 28 day): 3.2 g
- LIVER ([…], time 7 day): 15.2 g
- LIVER ([…], time 14 day): 18.1 g
- LIVER ([…], time 28 day): 20.9 g
- A/G ([…], time 7 day): 0.9
- ALP ([…], time 7 day): 1416.6 IU/L
- ALT ([…], time 7 day): 50.6 IU/L
- AST ([…], time 7 day): 77.4 IU/L
- BUN ([…], time 7 day): 15.8 mg/dL
- CRE ([…], time 7 day): 0.2 mg/dL
- Ca ([…], time 7 day): 11.2 mg/dL
- Cl ([…], time 7 day): 105.4 meq/L
- DBIL ([…], time 7 day): 0.012 mg/dL
- GLC ([…], time 7 day): 179.4 mg/dL
- IP ([…], time 7 day): 8.8 mg/dL
- K ([…], time 7 day): 4.1 meq/L
- LDH ([…], time 7 day): 92.8 IU/L
- Na ([…], time 7 day): 143.6 meq/L
- PL ([…], time 7 day): 136.2 mg/dL
- RALB ([…], time 7 day): 2.7 g/dL
- TBIL ([…], time 7 day): 0.052 mg/dL
- TC ([…], time 7 day): 67.8 mg/dL
- TG ([…], time 7 day): 71.8 mg/dL
- TP ([…], time 7 day): 5.8 g/dL
- gamma-GTP ([…], time 7 day): 1 IU/L
- A/G ([…], time 14 day): 0.9
- ALP ([…], time 14 day): 1573.2 IU/L
- ALT ([…], time 14 day): 50.6 IU/L
- AST ([…], time 14 day): 72.6 IU/L
- BUN ([…], time 14 day): 17.8 mg/dL
- CRE ([…], time 14 day): 0.2 mg/dL
- Ca ([…], time 14 day): 11 mg/dL
- Cl ([…], time 14 day): 105.6 meq/L
- DBIL ([…], time 14 day): 0.016 mg/dL
- GLC ([…], time 14 day): 179.2 mg/dL
- IP ([…], time 14 day): 7.2 mg/dL
- K ([…], time 14 day): 4.1 meq/L
- LDH ([…], time 14 day): 53.6 IU/L
- Na ([…], time 14 day): 144 meq/L
- PL ([…], time 14 day): 149.8 mg/dL
- RALB ([…], time 14 day): 2.7 g/dL
- TBIL ([…], time 14 day): 0.046 mg/dL
- TC ([…], time 14 day): 71.4 mg/dL
- TG ([…], time 14 day): 79.2 mg/dL
- TP ([…], time 14 day): 5.7 g/dL
- gamma-GTP ([…], time 14 day): 1 IU/L
- A/G ([…], time 28 day): 0.9
- ALP ([…], time 28 day): 936.8 IU/L
- ALT ([…], time 28 day): 43.6 IU/L
- AST ([…], time 28 day): 72.8 IU/L
- BUN ([…], time 28 day): 17 mg/dL
- CRE ([…], time 28 day): 0.2 mg/dL
- Ca ([…], time 28 day): 10.4 mg/dL
- Cl ([…], time 28 day): 105.8 meq/L
- DBIL ([…], time 28 day): 0.016 mg/dL
- GLC ([…], time 28 day): 164.4 mg/dL
- IP ([…], time 28 day): 6.3 mg/dL
- K ([…], time 28 day): 3.6 meq/L
- LDH ([…], time 28 day): 53.4 IU/L
- Na ([…], time 28 day): 145.2 meq/L
- PL ([…], time 28 day): 131.6 mg/dL
- RALB ([…], time 28 day): 2.6 g/dL
- TBIL ([…], time 28 day): 0.06 mg/dL
- TC ([…], time 28 day): 57.8 mg/dL
- TG ([…], time 28 day): 74.8 mg/dL
- TP ([…], time 28 day): 5.6 g/dL
- gamma-GTP ([…], time 28 day): 1 IU/L
